Measured values reported in ChEMBL document CHEMBL1159230, “Anti-AIDS agents, 18. Sodium and potassium salts of caffeic acid tetramers from Arnebia euchroma as anti-HIV agents” (J Nat Prod, 1995).
Values after ≈ are worked out from the molar mass of the structure shown.

Tests used:
H9 = experiment: Cytotoxicity against human H9 cells; format: cell-based
[1] = Therapeutic index, ratio of IC50 for human H9 cells to EC50 for HIV1 3B; format: cell-based; details: for Ratio IC50/EC50: h9; for selectivity ratio: H9 cells, read-out: Ratio IC50/EC50
[2] = system: Human immunodeficiency virus 1; experiment: Antiviral activity against HIV1 3B infected in human H9 cells after 4 days by p24 antigen ELISA assay; format: functional, organism-based; details: Human immunodeficiency virus 1, 3B, H9, 96 h

| EC50 [2] | SMILES | IC50 (H9) | Ratio IC50/EC50 [1] | selectivity ratio [1] |
| --- | --- | --- | --- | --- |
| 16 µg/mL | O=C(O[C@H](Cc1ccc(O)c(O)c1)C(=O)[O-])C1=Cc2cc(O)c(O)cc2[C@@H](c2ccc(O)c(O)c2)C1C(=O)O[C@H](Cc1ccc(O)c(O)c1)C(=O)[O-].[K+].[K+] (stereo partly drawn) | 50 µg/mL | 3.1 |  |
| 15 µg/mL (≈ 20.9 µM) | O=C(O[C@H](Cc1ccc(O)c(O)c1)C(=O)O)C1=Cc2cc(O)c(O)cc2[C@@H](c2ccc(O)c(O)c2)C1C(=O)O[C@H](Cc1ccc(O)c(O)c1)C(=O)O (stereo partly drawn) | 50 µg/mL (≈ 69.6 µM) | 3.3 |  |
| 13 µg/mL (≈ 18.1 µM) | O=C(O[C@H](Cc1ccc(O)c(O)c1)C(=O)O)C1=Cc2cc(O)c(O)cc2[C@H](c2ccc(O)c(O)c2)[C@H]1C(=O)O[C@H](Cc1ccc(O)c(O)c1)C(=O)O | 45 µg/mL (≈ 62.6 µM) | 3.5 |  |
| 4 µg/mL | O=C(O[C@H](Cc1ccc(O)c(O)c1)C(=O)[O-])C1=Cc2cc(O)c(O)cc2[C@@H](c2ccc(O)c(O)c2)C1C(=O)O[C@H](Cc1ccc(O)c(O)c1)C(=O)O.[K+] (stereo partly drawn) | 50 µg/mL | 12.5 |  |
| 10 µg/mL (≈ 40.9 µM) | O=c1ccn([C@@H]2O[C@H](CO)[C@@H](O)[C@H]2O)c(=O)[nH]1 [URIDINE] |  |  | > 10 |
| 2.8 µg/mL | O=C(O[C@H](Cc1ccc(O)c(O)c1)C(=O)[O-])C1=Cc2cc(O)c(O)cc2[C@@H](c2ccc(O)c(O)c2)C1C(=O)O[C@H](Cc1ccc(O)c(O)c1)C(=O)[O-].[Na+].[Na+] (stereo partly drawn) | 55 µg/mL | 19.6 |  |
| 1.5 µg/mL | O=C(O[C@H](Cc1ccc(O)c(O)c1)C(=O)[O-])C1=Cc2cc(O)c(O)cc2[C@H](c2ccc(O)c(O)c2)[C@H]1C(=O)O[C@H](Cc1ccc(O)c(O)c1)C(=O)O.[K+] | 50 µg/mL | 33.3 |  |
| 30 µg/mL | O=C(O[C@H](Cc1ccc(O)c(O)c1)C(=O)[O-])C1=Cc2cc(O)c(O[C@@H]3O[C@H](CO)[C@@H](O)[C@H](O)[C@H]3O)cc2[C@@H](c2ccc(O)c(O)c2)C1C(=O)O[C@H](Cc1ccc(O)c(O)c1)C(=O)[O-].[K+].[Na+] (stereo partly drawn) | 60 µg/mL |  | 2 |
